The results in this text go back to patent US20250042879A1, “HETEROCYCLIC SUBSTITUTED 1,3,4-THIADIAZOLE AND PYRIDAZINE COMPOUNDS AND METHODS OF USING THE SAME” (Rgenta Therapeutics, Inc., priority 2021, published 2025).

The experiment deals with HTT. As to the kind of experiment: Mini-gene reporter assay-HTT (firefly luciferase, exon inclusion). The settings on record: HTT Minigene, 5 μM; read-out: % Efficacy at 5 μM. It is filed as cell-based. An excerpt: Mini-gene reporter constructs for each target site were constructed by first PCR amplifying the region-of-interest including the sequence of the alternatively skipped, sequences of the immediate upstream and downstream introns, and sequences of the immediate upstream and downstream exons. Then the 3′end of the amplified sequence was ligated to a firefly luciferase reporter gene and cloned into the pcDNA3.1 vector backbone. The final reporter construct was transiently transfected into HEK293 cells using Lipofectamine 3000 transfection reagents. Compounds that can induce the inclusion of the skipped exon in the reporter construct would increase the reporter firefly luciferase activity.
Test compounds were diluted in duplicates and dispensed into an assay plate. Transient mini-gene reporter cell line stock was resuspended and dispensed into the assay plate. Assay plates were then centrifuged and incubated. A luciferase reagent (e.g. ONE-Glo firefly luciferase reagent from Promega®) was added to the assay plate and the luminescence (RLU) signals recorded. EC50 values were determined by curve fitting in Levenberg-Marquardt algorithm.
(In general: Reporter assays use an easily measured gene product as a stand-in for the process of interest.)
Consider `Cc1cn2cc(-c3ccc(-c4ccc(C5CN(C6CCN(C)CC6)C5)nn4)c(O)c3)cc(F)c2n1` [Compound 75], for which the Emax at 5 µM lay in the range of 25 to 75%.

`COCCC(C)N1CC(c2ccc(-c3ccc(-c4cc(F)c5nc(C)cn5c4)cc3O)nn2)C1` (stereo not shown) [Compound 76]: the Emax at 5 µM was more than 750%.

With `CCn1cc(CN2CC(c3ccc(-c4ccc(-c5cc(F)c6nc(C)cn6c5)cc4O)nn3)C2)cn1` [Compound 77], the Emax at 5 µM is more than 750%.

On to `Cc1cn2cc(-c3ccc(-c4ccc(C5CN(Cc6ccn(C)n6)C5)nn4)c(O)c3)cc(F)c2n1` [Compound 80], for which the Emax at 5 µM fell in the range of 25 to 75%.

As for `Cc1cn2cc(-c3ccc(-c4ccc(C5CN(Cc6cn(C)nc6C)C5)nn4)c(O)c3)cc(F)c2n1` [Compound 81], the Emax at 5 µM is 25 to 75%.

Take `Cc1cn2cc(-c3ccc(-c4ccc(C5CN(Cc6cncnc6)C5)nn4)c(O)c3)cc(F)c2n1` [Compound 82]: the Emax at 5 µM lay within 25 to 75%.

For the molecule `COCC(C)N1CC(c2ccc(-c3ccc(-c4cc(F)c5nc(C)cn5c4)cc3O)nn2)C1` (stereo not shown) [Compound 84], the Emax at 5 µM was more than 750%.

For `Cc1cn2cc(-c3ccc(-c4ccc(C5CN(C6CCOCC6C)C5)nn4)c(O)c3)cc(F)c2n1` (stereo not shown) [Compound 85], the Emax at 5 µM is more than 750%.

Consider `Cc1cn2cc(-c3ccc(-c4ccc(C5CN(CC6CCCOC6)C5)nn4)c(O)c3)cc(F)c2n1` (stereo not shown) [Compound 88], for which the Emax at 5 µM fell in the range of 25 to 75%.

With `Cc1cn2cc(-c3ccc(-c4ccc(C5CN(C6CCOC6)C5)nn4)c(O)c3)cc(F)c2n1` (stereo not shown) [Compound 89], the Emax at 5 µM is more than 750%.

As to `Cc1cn2cc(-c3ccc(-c4ccc(C5CN(Cc6cnco6)C5)nn4)c(O)c3)cc(F)c2n1` [Compound 90], the Emax at 5 µM fell in the range of 25 to 75%.

Consider `CCCn1cc(CN2CC(c3ccc(-c4ccc(-c5cc(F)c6nc(C)cn6c5)cc4O)nn3)C2)cn1` [Compound 91], for which the Emax at 5 µM fell in the range of 25 to 75%.

On to `CCC(COC)N1CC(c2ccc(-c3ccc(-c4cc(F)c5nc(C)cn5c4)cc3O)nn2)C1` (stereo not shown) [Compound 92], for which the Emax at 5 µM was more than 750%.

For the molecule `Cc1cn2cc(-c3ccc(-c4ccc(C5CN(Cc6ccn(C)c6)C5)nn4)c(O)c3)cc(F)c2n1` [Compound 94], the Emax at 5 µM lay within 25 to 75%.

Take `Cc1cn2cc(-c3ccc(-c4ccc(C5CN(C(C)C6CCCO6)C5)nn4)c(O)c3)cc(F)c2n1` (stereo not shown) [Compound 95]: the Emax at 5 µM is more than 750%.

As for `Cc1cn2cc(-c3ccc(-c4ccc(C5CN(Cc6cc(C)n(C)n6)C5)nn4)c(O)c3)cc(F)c2n1` [Compound 96], the Emax at 5 µM was less than 25%.

As to `Cc1cn2cc(-c3ccc(-c4ccc(C5CN(C6COCCOC6)C5)nn4)c(O)c3)cc(F)c2n1` [Compound 97], the Emax at 5 µM lay within 25 to 75%.

`Cc1cn2cc(-c3ccc(-c4ccc(C5CN(Cc6cc[nH]c6)C5)nn4)c(O)c3)cc(F)c2n1` [Compound 98]: the Emax at 5 µM was more than 750%.

As to `Cc1cn2cc(-c3ccc(-c4ccc(C5CN(C6CCCOCC6)C5)nn4)c(O)c3)cc(F)c2n1` (stereo not shown) [Compound 99], the Emax at 5 µM was more than 750%.

For the molecule `Cc1cn2cc(-c3ccc(-c4ccc(C5CN(Cc6cn(C)cn6)C5)nn4)c(O)c3)cc(F)c2n1` [Compound 100], the Emax at 5 µM was in the range of 25 to 75%.

Turning to `Cc1cn2cc(-c3ccc(-c4ccc(C5CN(Cc6cocn6)C5)nn4)c(O)c3)cc(F)c2n1` [Compound 101], the Emax at 5 µM fell in the range of 25 to 75%.

On to `Cc1cn2cc(-c3ccc(-c4ccc(C5CN(Cc6cnn(CCF)c6)C5)nn4)c(O)c3)cc(F)c2n1` [Compound 102], for which the Emax at 5 µM is more than 750%.

Turning to `COC1CC(N2CC(c3ccc(-c4ccc(-c5cc(F)c6nc(C)cn6c5)cc4O)nn3)C2)C1` (stereo not shown) [Compound 103], the Emax at 5 µM was in the range of 25 to 75%.

For the molecule `COCC(C)CN1CC(c2ccc(-c3ccc(-c4cc(F)c5nc(C)cn5c4)cc3O)nn2)C1` (stereo not shown) [Compound 104], the Emax at 5 µM fell in the range of 25 to 75%.

Turning to `Cc1cn2cc(-c3ccc(-c4ccc(C5CN(CC6CC6C)C5)nn4)c(O)c3)cc(F)c2n1` (stereo not shown) [Compound 105], the Emax at 5 µM was more than 750%.

For the molecule `Cc1cn2cc(-c3ccc(-c4ccc(C5CN(C(C)Cc6cnn(C)c6)C5)nn4)c(O)c3)cc(F)c2n1` (stereo not shown) [Compound 106], the Emax at 5 µM is more than 750%.

Regarding `Cc1cn2cc(-c3ccc(-c4ccc(C5CN(C(C)CCn6cccn6)C5)nn4)c(O)c3)cc(F)c2n1` (stereo not shown) [Compound 107], the Emax at 5 µM was 25 to 75%.

On to `Cc1cn2cc(-c3ccc(-c4ccc(C5CN(CC6(F)CC6)C5)nn4)c(O)c3)cc(F)c2n1` [Compound 108], for which the Emax at 5 µM is more than 750%.

For the molecule `Cc1cn2cc(-c3ccc(-c4ccc(C5CN(CC6CCSCC6)C5)nn4)c(O)c3)cc(F)c2n1` [Compound 109], the Emax at 5 µM is more than 750%.

For the molecule `Cc1cn2cc(-c3ccc(-c4ccc(C5CN(CC6(C)COC6)C5)nn4)c(O)c3)cc(F)c2n1` [Compound 110], the Emax at 5 µM is 25 to 75%.

With `Cc1cn2cc(-c3ccc(-c4ccc(C5CN(CC6CCSC6)C5)nn4)c(O)c3)cc(F)c2n1` (stereo not shown) [Compound 111], the Emax at 5 µM was more than 750%.

With `Cc1cn2cc(-c3ccc(-c4ccc(C5CN(CC6(C(F)F)CC6)C5)nn4)c(O)c3)cc(F)c2n1` [Compound 112], the Emax at 5 µM fell in the range of 25 to 75%.

Take `Cc1cn2cc(-c3ccc(-c4ccc(C5CN(C6CCOC7(CCC7)C6)C5)nn4)c(O)c3)cc(F)c2n1` (stereo not shown) [Compound 113]: the Emax at 5 µM lay within 25 to 75%.

Regarding `Cc1cn2cc(-c3ccc(-c4ccc(C5CN(Cc6conc6C)C5)nn4)c(O)c3)cc(F)c2n1` [Compound 114], the Emax at 5 µM was less than 25%.

Take `Cc1cn2cc(-c3ccc(-c4ccc(C5CN(C(C)Cc6cnccn6)C5)nn4)c(O)c3)cc(F)c2n1` (stereo not shown) [Compound 115]: the Emax at 5 µM was 25 to 75%.

On to `Cc1cn2cc(-c3ccc(-c4ccc(C5CN(Cc6cn(C(C)C)nn6)C5)nn4)c(O)c3)cc(F)c2n1` [Compound 116], for which the Emax at 5 µM was 25 to 75%.

For `Cc1cn2cc(-c3ccc(-c4ccc(C5CN(Cc6cnn(C)n6)C5)nn4)c(O)c3)cc(F)c2n1` [Compound 117], the Emax at 5 µM was in the range of 25 to 75%.

In the case of `Cc1cn2cc(-c3ccc(-c4ccc(C5CN(C6COC(C)C6)C5)nn4)c(O)c3)cc(F)c2n1` (stereo not shown) [Compound 119], the Emax at 5 µM was in the range of 25 to 75%.

Take `Cc1cn2cc(-c3ccc(-c4ccc(C5CN(C(C)Cn6cncn6)C5)nn4)c(O)c3)cc(F)c2n1` (stereo not shown) [Compound 120]: the Emax at 5 µM was less than 25%.

For `Cc1cn2cc(-c3ccc(-c4ccc(C5CN(Cc6ccc[nH]c6=O)C5)nn4)c(O)c3)cc(F)c2n1` [Compound 121], the Emax at 5 µM lay in the range of 25 to 75%.

`Cc1cn2cc(-c3ccc(-c4ccc(C5CN(C(C)C6CCCCO6)C5)nn4)c(O)c3)cc(F)c2n1` (stereo not shown) [Compound 122]: the Emax at 5 µM was 25 to 75%.

With `CCn1cc(CN2CC(c3ccc(-c4ccc(-c5cc(F)c6nc(C)cn6c5)cc4O)nn3)C2)nn1` [Compound 123], the Emax at 5 µM lay in the range of 25 to 75%.

As for `Cc1cn2cc(-c3ccc(-c4ccc(C5CN(C6CC7(COC(C)C7)C6)C5)nn4)c(O)c3)cc(F)c2n1` (stereo not shown) [Compound 124], the Emax at 5 µM was 25 to 75%.

`CCn1cnc(CN2CC(c3ccc(-c4ccc(-c5cc(F)c6nc(C)cn6c5)cc4O)nn3)C2)c1` [Compound 125]: the Emax at 5 µM was 25 to 75%.

`COc1nn(C)cc1CN1CC(c2ccc(-c3ccc(-c4cc(F)c5nc(C)cn5c4)cc3O)nn2)C1` [Compound 126]: the Emax at 5 µM fell in the range of 25 to 75%.

With `COCn1nccc1CN1CC(c2ccc(-c3ccc(-c4cc(F)c5nc(C)cn5c4)cc3O)nn2)C1` [Compound 127], the Emax at 5 µM is less than 25%.

Consider `Cc1cn2cc(-c3ccc(-c4ccc(C5CN(C6CCc7cn[nH]c7C6)C5)nn4)c(O)c3)cc(F)c2n1` (stereo not shown) [Compound 128], for which the Emax at 5 µM was in the range of 25 to 75%.

`COc1cc(-c2ccc(-c3ccc(C4CN(Cc5ccccn5)C4)nn3)c(O)c2)cc2cn(C)nc12` [Compound 129]: the Emax at 5 µM is less than 25%.

As to `COc1cc(-c2ccc(-c3ccc(C4CN(Cc5cccnc5)C4)nn3)c(O)c2)cc2cn(C)nc12` [Compound 130], the Emax at 5 µM lay in the range of 25 to 75%.

As to `COc1cc(-c2ccc(-c3ccc(C4CN(CC5CC=CCC5)C4)nn3)c(O)c2)cc2cn(C)nc12` (stereo not shown) [Compound 131], the Emax at 5 µM is more than 750%.

For the molecule `CCN1CCC(N2CC(c3ccc(-c4ccc(-c5cc(OC)c6nn(C)cc6c5)cc4O)nn3)C2)CC1` [Compound 132], the Emax at 5 µM was less than 25%.

As to `COc1cc(-c2ccc(-c3ccc(C4CN(Cc5c(C)nn(C)c5C)C4)nn3)c(O)c2)cc2cn(C)nc12` [Compound 133], the Emax at 5 µM was less than 25%.

In the case of `COc1cc(-c2ccc(-c3ccc(C4CN(C5CCN(C6CC6)CC5)C4)nn3)c(O)c2)cc2cn(C)nc12` [Compound 134], the Emax at 5 µM is less than 25%.

For `COc1cc(-c2ccc(-c3ccc(C4CN(C5CCC(C)C5)C4)nn3)c(O)c2)cc2cn(C)nc12` (stereo not shown) [Compound 135], the Emax at 5 µM was in the range of 25 to 75%.

For the molecule `COc1cc(-c2ccc(-c3ccc(C4CN(CC(C)(C)C)C4)nn3)c(O)c2)cc2cn(C)nc12` [Compound 136], the Emax at 5 µM was more than 750%.

For the molecule `COc1cc(-c2ccc(-c3ccc(C4CN(C5CCCC5)C4)nn3)c(O)c2)cc2cn(C)nc12` [Compound 137], the Emax at 5 µM is more than 750%.

With `COc1cc(-c2ccc(-c3ccc(C4CN(C(C)c5ccccn5)C4)nn3)c(O)c2)cc2cn(C)nc12` (stereo not shown) [Compound 138], the Emax at 5 µM was in the range of 25 to 75%.

For the molecule `COc1cc(-c2ccc(-c3ccc(C4CN(C5CCN(C6CC6)C5)C4)nn3)c(O)c2)cc2cn(C)nc12` (stereo not shown) [Compound 139], the Emax at 5 µM lay within 25 to 75%.

Consider `COc1cc(-c2ccc(-c3ccc(C4CN(Cc5csnn5)C4)nn3)c(O)c2)cc2cn(C)nc12` [Compound 140], for which the Emax at 5 µM is less than 25%.

As to `COc1cc(-c2ccc(-c3ccc(C4CN(Cc5cncs5)C4)nn3)c(O)c2)cc2cn(C)nc12` [Compound 141], the Emax at 5 µM is 25 to 75%.

As for `COc1cc(-c2ccc(-c3ccc(C4CN(C5CCCSC5)C4)nn3)c(O)c2)cc2cn(C)nc12` (stereo not shown) [Compound 142], the Emax at 5 µM was in the range of 25 to 75%.
